From patent publication US12023387B2, “NIR-II emissive luminogens” (THE HONG KONG UNIVERSTIY OF SCIENCE AND TECHNOLOGY, priority 2018, dated 2024)

What was measured:
[1] = UV-vis absorption spectrum in THF solution; assay type: physicochemical; settings: THE (THF) solution, 10 μM
nude mouse = assay: In vivo dynamic NIR-II fluorescence imaging after intravenous injection; settings: i.v. injection of TSPCI solution in water, images 1-5 s after injection, 808 nm excitation, 1000 nm long-pass filter
Procedure: NIR-I fluorescence imaging was performed using the Maestro in vivo imaging system (CRI, Inc.). To acquire fluorescence of an NIR-I AIEgen (TTD), a 605 nm (+25 nm) bandpass filter and a 645 nm longpass filter were selected as the excitation filter and the emission filter, respectively. NIR-II imaging was performed using the home-built NIR-II in vivo imaging system. The excitation light was provided by an 808 nm diode laser. The emitted light from the TSPCI was filtered through a 1000 nm long-pass filter, which was coupled with a two-dimensional InGaAs array camera (with spectral response range of 900-1700 nm, Photonic Science) for NIR-II fluorescence signal collection. The excitation power density at the imaging plane was 6.4 mW/cm^2, much lower than the safe exposure limit of 330 mW/cm^2 at 808 nm determined by the International Commission on Nonionizing Radiation Protection. […]
TSPCI was added to water under sonication to provide a TSPCI solution. […] FIG. 7A depicts an NIR-II fluorescence image of the nude mouse before intravenous injection of TSPCI solution. FIG. 7B depicts an NIR-II fluorescence image of the nude mouse one second after injection of TSPCI solution. FIG. 7C depicts an NIR-II fluorescence image of the nude mouse two seconds after injection of TSPCI solution. FIG. 7D depicts an NIR-II fluorescence image of the nude mouse three seconds after injection of TSPCI solution. […]

[2] = AIE property: photoluminescence in THF/water mixtures with varying water fraction; assay type: physicochemical
Procedure: FIG. 4 depicts (A) an image of TSPCI powder in daylight; (B) the UV-vis absorption spectrum of TSPCI; (C) the photoluminescence (PL) spectra of TSPCI in THF and THF/water mixtures with different water fractions (fw); and (D) the plot of relative PL intensities at 950 nm versus the fw (concentration: 10 μM; excitation wavelength: 808 nm).
The AIE property of TSPCI was investigated by varying the water fractions (fw) in tetrahydrofuran (THF)/water mixtures (FIG. 4C). […] The strongest emission intensity at ˜950 nm reached its maximum value at 90 vol % water content, which was ˜35-fold higher than that in the pure THF due to the restriction of intramolecular rotation ([…]).

maximal absorption wavelength [1]: 682 nm
wavelength of strongest emission intensity ([2]; THF/water mixtures, excitation 808 nm): ~950 nm
emission spectrum range in aggregate state ([2]; aggregate state, bright emission, NIR-II): 1000-1700 nm
emission intensity enhancement versus pure THF ([2]; at ~950 nm, 90 vol % water content in THF/water, 10 μM, excitation 808 nm): ~35 fold
emission in pure THF solution ([2]; pure THF (fw=0)): no emission was observed
SMILES: N#CC(C#N)=C1C(=C2C=C(/C=C/c3ccc(N(c4ccccc4)c4ccccc4)cc3)OC(/C=C/c3ccc(N(c4ccccc4)c4ccccc4)cc3)=C2)C(=C(C#N)C#N)c2ccccc21 [TSPCI]
in vivo NIR-II imaging performance (nude mouse): high contrast and penetration depth
